Experimental data published in patent publication US12497378B2, “Tetrahydronaphthalene compounds, pharmaceutical compositions, and uses thereof” (GUANGZHOU HENOVCOM BIOSCIENCE CO., LTD., priority 2020, dated 2025).

Test: Pharmacokinetics experiment in mouse after intramuscular injection of compound suspensions
Assay type: in vivo
Conditions: 9 mg/kg (calculated according to Rotigotine), SD mice, plasma
Protocol: The compounds of the present disclosure were precisely weighed in a proper amount and placed in a 20 ml vial, a blank matrix solution and a zirconia grinding ball were added to grind by vortex. After grinding, the suspension sample was transferred, and the blank matrix solution was used for diluting the suspension sample to final volume, and the suspension sample was packaged into 7 ml vials to prepare about a 20 mg/ml suspension. After the quantitative analysis was determined, the suspension was used for the pharmacokinetics experiment in the mouse.
Suspensions of Embodiments 15, 24, 27, 32 and 54 were prepared according to the method of Embodiment 82 and were taken at a dose of 9 mg/kg(calculated according to Rotigotine), and each of the above-mentioned compound suspensions was intramuscularly administrated for three SD mice, and whole blood samples were taken in 1 h, 4 h, 8 h, 24 h, 48 h, 72 h, 96 h, 120 h, 168 h, 216, 264 h, 312 h, and 360 h after administration, with 0.3 ml/time point. K2EDT/heparin sodium were added to the whole blood samples for anticoagulation, and a BNPP stabilizer was further added, and then each whole blood sample was centrifuged to obtain plasma in 30 min.

- blood concentrations of the active compounds (1 h after intramuscular injection of compound suspension): 0.288 ng/mL
- blood concentrations of the active compounds (4 h after intramuscular injection of compound suspension): 1.26 ng/mL
- blood concentrations of the active compounds (8 h after intramuscular injection of compound suspension): 2.53 ng/mL
- blood concentrations of the active compounds (24 h after intramuscular injection of compound suspension): 2.31 ng/mL
- blood concentrations of the active compounds (48 h after intramuscular injection of compound suspension): 2.02 ng/mL
- blood concentrations of the active compounds (72 h after intramuscular injection of compound suspension): 1.51 ng/mL
- blood concentrations of the active compounds (96 h after intramuscular injection of compound suspension): 1.57 ng/mL
- blood concentrations of the active compounds (120 h after intramuscular injection of compound suspension): 1.86 ng/mL
- blood concentrations of the active compounds (168 h after intramuscular injection of compound suspension): 2.29 ng/mL
- blood concentrations of the active compounds (216 h after intramuscular injection of compound suspension): 2.76 ng/mL
- blood concentrations of the active compounds (264 h after intramuscular injection of compound suspension): 1.83 ng/mL
- blood concentrations of the active compounds (312 h after intramuscular injection of compound suspension): 1.33 ng/mL
- blood concentrations of the active compounds (360 h after intramuscular injection of compound suspension): 0.906 ng/mL
Substance: (S)-6-(propyl(2-(thiophen-2-yl)ethyl)amino)-5,6,7,8-tetrahydronaphthalen-1-yl 3-(16-(ethylamino)-16-oxohexadecanamido) propanoate [Embodiment 54]
